From article doi:10.1101/2024.08.06.606911v7 (biorxiv, 2025)

Target: PTEN (GST-PTEN; Myc-PTEN) (Homo sapiens, UniProt P60484)
Test: SPR, BIACORE […], PTEN immobilised on CM5 chip
Format: binding

Sequence of PTEN (GST-PTEN; Myc-PTEN) (P60484 whole entry): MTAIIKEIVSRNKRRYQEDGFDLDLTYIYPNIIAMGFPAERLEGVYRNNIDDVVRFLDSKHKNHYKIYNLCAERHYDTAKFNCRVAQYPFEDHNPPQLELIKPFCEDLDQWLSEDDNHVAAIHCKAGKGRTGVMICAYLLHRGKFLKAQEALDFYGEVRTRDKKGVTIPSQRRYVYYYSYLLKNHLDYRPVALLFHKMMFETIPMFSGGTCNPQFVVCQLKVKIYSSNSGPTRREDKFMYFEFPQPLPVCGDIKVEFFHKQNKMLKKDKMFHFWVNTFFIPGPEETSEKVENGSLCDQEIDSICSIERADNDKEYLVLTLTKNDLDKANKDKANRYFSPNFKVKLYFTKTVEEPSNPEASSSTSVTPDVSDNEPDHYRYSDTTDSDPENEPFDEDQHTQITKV

Compound `C[C@@H]1O[C@@H](O[C@@H]2[C@@H](O)[C@H](OCCc3ccc(O)c(O)c3)O[C@H](CO[C@@H]3O[C@H](CO)[C@@H](O)[C@H](O)[C@H]3O)[C@H]2OC(=O)/C=C/c2ccc(O)c(O)c2)[C@H](O)[C@H](O)[C@H]1O` [Echinacoside] has a Kd of 230 µM.
